Key:
Assay in all cases: relative viability (nuclei count vs DMSO), 5 days (fraction); higher = more cells survive
AZD5582 + Foretinib = compound: C[C@@H](C(=O)N[C@@H](C1CCCCC1)C(=O)N2CCC[C@H]2C(=O)N[C@@H]3[C@@H](CC4=CC=CC=C34)OCC#CC#CCO[C@@H]5CC6=CC=CC=C6[C@@H]5NC(=O)[C@@H]7CCCN7C(=O)[C@H](C8CCCCC8)NC(=O)[C@H](C)NC)NC [AZD5582] + COc1cc2c(Oc3ccc(NC(=O)C4(C(=O)Nc5ccc(F)cc5)CC4)cc3F)ccnc2cc1OCCCN1CCOCC1 [Foretinib] (partner 0.25 µM)
Method in brief: (§1)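 After 5 days of treatment, lung cancer cells in 1536-well plates were fixed and stained in a single step (final 0.05% Triton X-100, 1% formaldehyde, 1 ug/ml Hoechst) and their nuclei counted on 4× images. Treatment had been applied by pin tool the day after seeding as one drug alone or as a fixed anchor-drug dose with five library-drug doses (not always all listed) in √10 steps. Relative viability is the nuclei count of treated wells divided by that of vehicle wells, and values are medians of duplicate plates.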

AZD5582 + Vorinostat = compound: C[C@@H](C(=O)N[C@@H](C1CCCCC1)C(=O)N2CCC[C@H]2C(=O)N[C@@H]3[C@@H](CC4=CC=CC=C34)OCC#CC#CCO[C@@H]5CC6=CC=CC=C6[C@@H]5NC(=O)[C@@H]7CCCN7C(=O)[C@H](C8CCCCC8)NC(=O)[C@H](C)NC)NC [AZD5582] + O=C(CCCCCCC(=O)Nc1ccccc1)NO [Vorinostat] (partner 1 µM)
Method in brief: as §1

[1] = compound: Cn1nnc2c(C(N)=O)ncn2c1=O [Temozolomide] + CC(=O)Nc1cccc(-n2c(=O)n(C3CC3)c(=O)c3c(Nc4ccc(I)cc4F)n(C)c(=O)c(C)c32)c1 [Trametinib] (partner 0.02 µM)
Method in brief: as §1

[2] = compound: Cn1nnc2c(C(N)=O)ncn2c1=O [Temozolomide] + CC1(C)CCC(c2ccc(Cl)cc2)=C(CN2CCN(c3ccc(C(=O)NS(=O)(=O)c4ccc(N[C@H](CCN5CCOCC5)CSc5ccccc5)c(S(=O)(=O)C(F)(F)F)c4)cc3)CC2)C1 [Navitoclax] (partner 0.5 µM)
Method in brief: as §1

| Cell Line | relative viability (AZD5582 + Foretinib; first compound 0.001581 µM) | relative viability (AZD5582 + Foretinib; first compound 0.005 µM) | relative viability (AZD5582 + Foretinib; first compound 0.01581 µM) | relative viability (AZD5582 + Foretinib; first compound 0.05 µM) | relative viability (AZD5582 + Vorinostat; first compound 0.001581 µM) | relative viability (AZD5582 + Vorinostat; first compound 0.005 µM) | relative viability (AZD5582 + Vorinostat; first compound 0.01581 µM) | relative viability (AZD5582 + Vorinostat; first compound 0.05 µM) | relative viability ([1]; first compound 0.2 µM) | relative viability ([1]; first compound 0.6325 µM) | relative viability ([1]; first compound 2 µM) | relative viability ([1]; first compound 6.325 µM) | relative viability ([1]; first compound 20 µM) | relative viability ([2]; first compound 0.2 µM) | relative viability ([2]; first compound 0.6325 µM) | relative viability ([2]; first compound 2 µM) | relative viability ([2]; first compound 6.325 µM) | relative viability ([2]; first compound 20 µM) |
| --- | --- | --- | --- | --- | --- | --- | --- | --- | --- | --- | --- | --- | --- | --- | --- | --- | --- | --- |
| NCI-H1915 | 1.06 | 1.09 | 1.13 | 1.09 | 0.428 | 0.439 | 0.462 | 0.477 | 0.29 | 0.288 | 0.32 | 0.24 | 0.201 | 0.797 | 0.754 | 0.684 | 0.495 | 0.305 |
| NCI-H1944 | 0.8 | 0.976 | 0.93 | 1.05 | 0.464 | 0.641 | 0.542 | 0.619 | 0.367 | 0.402 | 0.435 | 0.426 | 0.362 | 0.855 | 1.05 | 1.12 | 1.04 | 0.913 |
| NCI-H1975 | 0.926 | 1.17 | 1.06 | 1.2 | 0.699 | 0.872 | 0.687 | 0.885 | 0.339 | 0.31 | 0.371 | 0.373 | 0.413 | 1.2 | 1.11 | 1.2 | 1.07 | 1.13 |
| NCI-H1993 | 0.792 | 0.786 | 0.854 | 0.715 | 0.725 | 0.888 | 0.795 | 1.03 | 0.429 | 0.61 | 0.473 | 0.455 | 0.552 | 0.823 | 0.893 | 0.889 | 0.879 | 0.804 |
| NCI-H2009 | 1.22 | 1.28 | 1.19 | 1.29 | 0.695 | 0.743 | 0.711 | 0.792 | 0.279 | 0.273 | 0.389 | 0.268 | 0.265 | 1.2 | 1.22 | 1.12 | 1.17 | 1.25 |
| NCI-H2023 | 0.805 | 0.851 | 0.802 | 0.804 | 0.508 | 0.725 | 0.627 | 0.643 | 0.568 | 0.635 | 0.468 | 0.497 | 0.518 | 1.02 | 1 | 1.13 | 0.985 | 0.997 |
| NCI-H2085 | 1.06 | 0.776 | 0.924 | 0.698 | 0.82 | 1 | 0.73 | 0.917 | 0.527 | 0.438 | 0.621 | 0.513 | 0.581 | 1.2 | 1.24 | 1.24 | 1.18 | 1.06 |
| NCI-H2087 | 0.957 | 1.24 | 1.05 | 1.16 | 0.424 | 0.788 | 0.712 | 0.594 | 0.209 | 0.213 | 0.255 | 0.204 | 0.172 | 1.15 | 1.05 | 1.02 | 0.891 | 0.965 |
| NCI-H2126 | 1.15 | 1.19 | 1.05 | 0.969 | 0.817 | 0.84 | 0.47 | 0.704 | 0.561 | 0.588 | 0.624 | 0.555 | 0.623 | 0.853 | 0.829 | 0.83 | 0.886 | 0.844 |
| NCI-H2170 | 1.04 | 1.01 | 1 | 1.09 | 0.683 | 0.834 | 0.787 | 0.91 |  | 0.984 | 0.902 | 0.876 | 0.348 |  | 0.478 | 0.6 | 0.534 | 0.32 |
| NCI-H2228 | 0.843 | 1 | 0.788 | 0.472 | 0.81 | 0.702 | 0.667 | 0.645 | 0.286 | 0.617 | 0.432 | 0.459 | 0.537 | 0.921 | 1.43 | 0.951 | 0.857 | 1.26 |
| NCI-H2347 | 0.688 | 0.736 | 0.557 | 0.794 | 0.63 | 0.547 | 0.515 | 0.483 | 0.26 | 0.291 | 0.28 | 0.289 | 0.244 | 0.818 | 0.825 | 0.441 | 0.73 | 0.732 |
| NCI-H2405 | 1 | 1.07 | 0.987 | 1.06 | 1.04 | 1.1 | 0.88 | 1.11 | 0.585 | 0.699 | 0.798 | 0.569 | 0.597 | 0.34 | 0.775 | 0.995 | 0.73 | 0.82 |
| NCI-H3122 | 0.977 | 0.994 | 0.933 | 0.602 | 0.946 | 1.09 | 0.924 | 0.236 | 0.222 | 0.291 | 0.246 | 0.251 | 0.242 | 1.05 | 1.03 | 1.08 | 1.01 | 0.976 |
| PC-3 [JPC-3] | 0.866 | 0.809 | 0.96 | 0.488 | 0.714 | 0.532 | 0.664 | 0.43 | 0.547 | 0.769 | 0.821 | 0.724 | 0.433 | 0.725 | 0.847 | 0.784 | 0.82 | 0.364 |
| PC-14 | 0.903 | 1.06 | 0.938 | 0.945 | 0.636 | 0.881 | 0.406 | 0.687 | 0.96 | 0.766 | 0.758 | 0.813 | 0.585 | 1.07 | 1.01 | 1.06 | 0.956 | 0.928 |
| RERF-LC-KJ | 0.758 | 0.836 | 0.855 | 0.924 | 0.306 | 0.225 | 0.655 | 0.283 | 0.788 | 0.815 | 0.763 | 0.845 | 0.826 | 1.04 | 0.884 | 0.928 | 0.951 | 1.06 |

Reference: the supplement of paper PMC10307832
